Measurements published in patent US20260193249A1, “PREPARATION OF PYRAZOLOPYRIDINE AND TRIAZOLOPYRIDINE DERIVATIVES AS NOVEL DIACYLGLYCERIDE O-ACYLTRANSFERASE 2 INHIBITORS” (Merck Sharp & Dohme LLC, priority 2022, published 2026).

Molecular target: T1, human DGAT2 (Homo sapiens, UniProt Q96PD7)
T1 construct: made in house; host or cells: Sf-9 insect cells (baculovirus), membrane fraction
T1 sequence (Q96PD7 1-388): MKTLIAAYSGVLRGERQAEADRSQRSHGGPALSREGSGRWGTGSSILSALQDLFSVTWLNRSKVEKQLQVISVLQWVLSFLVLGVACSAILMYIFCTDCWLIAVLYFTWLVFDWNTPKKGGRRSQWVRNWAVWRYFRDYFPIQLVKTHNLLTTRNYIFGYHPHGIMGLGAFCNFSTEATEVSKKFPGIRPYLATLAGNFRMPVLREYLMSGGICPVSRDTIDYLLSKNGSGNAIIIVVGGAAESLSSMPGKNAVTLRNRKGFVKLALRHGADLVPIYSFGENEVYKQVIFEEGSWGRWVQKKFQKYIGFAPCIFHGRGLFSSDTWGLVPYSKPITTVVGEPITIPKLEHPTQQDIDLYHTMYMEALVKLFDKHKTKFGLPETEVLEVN
Assay: DGAT2 Enzymatic Activity Assay
Assay type: biochemical
Details: membrane prep of Sf-9 insect cells expressing hDGAT2; 13C18-triolein product by LC/MS/MS; 25 μM diolein, 5 μM 13C oleoyl-CoA
Procedure: Sf-9 insect cells were maintained in Grace's insect cell culture medium with 10% heated-inactivated fetal bovine serum, 1% Pluronic F-68 and 0.14 μg/ml Kanamycine sulfate at 27° C. in a shaker incubator. After infection with untagged baculovirus expressing human DGAT2 (hDGAT2) at multiplicity of infection (MOI) 3 for 48 hours, cells were harvested. Cell pellets were suspended in buffer containing 10 mM Tris-HCl pH 7.5, 1 mM EDTA, 250 mM sucrose and Complete Protease Inhibitor Cocktail (Sigma Aldrich), and sonicated on ice. Cell debris were removed by centrifugation at 2000×g for 15 minutes. Membrane fractions were isolated by ultracentrifugation (100,000×g), resuspended in the same buffer, and frozen (−80° C.) for later use. The protein concentration was determined with the Pierce™ BCA Protein Assay Kit (Thermo Fisher Scientific).
LC/MS/MS analyses were performed using Thermal Fisher's LX4-TSQ Vantage system. This system consists of an Agilent binary high-performance liquid chromatography (HPLC) pump and a TSQ Vantage triple quadrupole MS/MS instrument. For each sample, 2 μL samples from the top organic layer of in-plate liquid-liquid extraction were injected onto a Thermo Betabasic C4 column (2.1 mm×20 mm, 5 μm particle size). The samples were then eluted using the following conditions; mobile phase: Isopropanol:acetonitrile/10 mM ammonium formate=50/35/15 (v/v/v), flow rate: 0.8 mL/min, temperature: 25° C. Data was acquired in positive mode using a heated electrospray ionization (HESI) interface. […] The peak area was integrated by Xcalibur Quan software. The ratio between the ^13C18triolein generated in the reaction and spiked in internal standard ^13C21-triolein was used to generate percentage inhibition and IC50 values. Compound percentage inhibition was calculated by the following formula: Inhibition %=1−[(compound response−low control)/(high control−low control)]×100%.
DGAT2 activity was determined by measuring the amount of enzymatic product ^13C18-triolein (^13C-1,2,3-Tri(cis-9-octadecenoyl)glycerol) using the membrane prep mentioned above. The assay was carried out in ABgene 384-well assay plates in a final volume of 25 μL at rt.

| IC50 | SMILES |
| --- | --- |
| 111 nM | CC(O)c1cnc(Oc2ccn3nc(C(=O)NC4(C)CCS(=O)(=O)CC4)cc3c2)c(OCC(F)(F)F)c1 (single isomer, unassigned) [Example 44a, 5-((5-(1-Hydroxyethyl)-3-(2,2,2-trifluoroethoxy)pyridin-2-yl)oxy)-N-(4-methyl-1,1-dioxidotetrahydro-2H-thiopyran-4-yl)pyrazolo[1,5-a]pyridine-2-carboxamide] |
| 48 nM | CC1(NC(=O)c2nn3ccc(Oc4ncc(F)cc4OCC(F)(F)F)cc3c2C2CC2)CCS(=O)(=O)CC1 [Example 54, 3-cyclopropyl-5-((5-fluoro-3-(2,2,2-trifluoroethoxy)pyridin-2-yl)oxy)-N-(4-methyl-1,1-dioxidotetrahydro-2H-thiopyran-4-yl)pyrazolo[1,5-a]pyridine-2-carboxamide] |
| 194 nM | CC1(NC(=O)c2nn3ccc(Oc4nccnc4OCC(F)F)cc3c2F)CS(=O)(=O)C1 [Example 31, 5-((3-(2,2-Difluoroethoxy)pyrazin-2-yl)oxy)-3-fluoro-N-(3-methyl-1,1-dioxidothietan-3-yl)pyrazolo[1,5-a]pyridine-2-carboxamide] |
| 129 nM | CC1(NC(=O)c2nn3ccc(Oc4ncc(F)cc4OCC(F)(F)F)cc3c2F)CS(=O)(=O)C1 [Example 28, 3-Fluoro-5-((5-fluoro-3-(2,2,2-trifluoroethoxy)pyridin-2-yl)oxy)-N-(3-methyl-1,1-dioxidothietan-3-yl)pyrazolo[1,5-a]pyridine-2-carboxamide] |
| 171 nM | Cc1c(C(=O)NC2(C)CS(=O)(=O)C2)nn2ccc(Oc3ncccc3OCC(F)(F)F)cc12 [Example 20, 3-Methyl-N-(3-methyl-1,1-dioxidothietan-3-yl)-5-((3-(2,2,2-trifluoroethoxy)pyridin-2-yl)oxy)pyrazolo[1,5-a]pyridine-2-carboxamide] |
| 3.5 nM | Cc1cn2nc(C(=O)NC3(C)CCS(=O)(=O)CC3)cc2cc1Oc1ncc(F)cc1OCC(F)(F)F [Example 60, 5-((5-Fluoro-3-(2,2,2-trifluoroethoxy)pyridin-2-yl)oxy)-6-methyl-N-(4-methyl-1,1-dioxidotetrahydro-2H-thiopyran-4-yl)pyrazolo[1,5-a]pyridine-2-carboxamide] |
| 17 nM | CC1(NC(=O)c2cc3cc(Oc4nccnc4OCC(F)(F)F)ccn3n2)CCS(=O)(=O)CC1 [Example 13, N-(4-Methyl-1,1-dioxidotetrahydro-2H-thiopyran-4-yl)-5-((3-(2,2,2-trifluoroethoxy)pyrazin-2-yl)oxy)pyrazolo[1,5-a]pyridine-2-carboxamide] |
| 1560 nM | CC1(NC(=O)c2cc3cc(Oc4ncc(C(O)C(F)(F)F)cc4OCC(F)(F)F)ccn3n2)CS(=O)(=O)C1 (single isomer, unassigned) [Example 45b, N-(3-Methyl-1,1-dioxidothietan-3-yl)-5-((5-(2,2,2-trifluoro-1-hydroxyethyl)-3-(2,2,2-trifluoroethoxy)pyridin-2-yl)oxy)pyrazolo[1,5-a]pyridine-2-carboxamide] |
| 333 nM | CC(O)c1c(C(=O)NC2(C)CCS(=O)(=O)CC2)nn2ccc(Oc3ncccc3OCC(F)(F)F)cc12 (single isomer, unassigned) [Example 52b, 3-(1-Hydroxyethyl)-N-(4-methyl-1,1-dioxidotetrahydro-2H-thiopyran-4-yl)-5-((3-(2,2,2-trifluoroethoxy)pyridin-2-yl)oxy)pyrazolo[1,5-a]pyridine-2-carboxamide] |
| > 9990 nM | O=C(N[C@H]1CCOC1)c1cc2cc(Oc3ncccc3OCC(F)(F)F)ccn2n1 [Example 6, (S)-N-(Tetrahydrofuran-3-yl)-5-((3-(2,2,2-trifluoroethoxy)pyridin-2-yl)oxy)pyrazolo[1,5-a]pyridine-2-carboxamide] |
| 17 nM | CCc1c(C(=O)NC2(C)CCS(=O)(=O)CC2)nn2ccc(Oc3ncccc3OCC(F)(F)F)cc12 [Example 46, 3-Ethyl-N-(4-methyl-1,1-dioxidotetrahydro-2H-thiopyran-4-yl)-5-((3-(2,2,2-trifluoroethoxy)pyridin-2-yl)oxy)pyrazolo[1,5-a]pyridine-2-carboxamide] |
| 264 nM | CCOc1cccc(COc2ccn3nc(C(=O)NC4(C)CCS(=O)(=O)CC4)cc3n2)n1 [Example 69, 5-((6-Ethoxypyridin-2-yl)methoxy)-N-(4-methyl-1,1-dioxidotetrahydro-2H-thiopyran-4-yl)pyrazolo[1,5-a]pyrimidine-2-carboxamide] |
| 10 nM | CC1(NC(=O)c2nn3ccc(Oc4ncccc4OCC(F)(F)F)cc3c2CO)CCS(=O)(=O)CC1 [Example 50, 3-(Hydroxymethyl)-N-(4-methyl-1,1-dioxidotetrahydro-2H-thiopyran-4-yl)-5-((3-(2,2,2-trifluoroethoxy)pyridin-2-yl)oxy)pyrazolo[1,5-a]pyridine-2-carboxamide] |
| 9.7 nM | CC1(NC(=O)c2cc3cc(Oc4ncccc4OCC(F)(F)F)ccn3n2)CCS(=O)(=O)CC1 [Example 1, N-(4-Methyl-1,1-dioxidotetrahydro-2H-thiopyran-4-yl)-5-((3-(2,2,2-trifluoroethoxy)pyridin-2-yl)oxy)pyrazolo[1,5-a]pyridine-2-carboxamide] |
| 30 nM | CC1(NC(=O)c2nn3ccc(Oc4ncccc4OCC(F)(F)F)cc3c2Cl)CS(=O)(=O)C1 [Example 25, 3-Chloro-N-(3-methyl-1,1-dioxidothietan-3-yl)-5-((3-(2,2,2-trifluoroethoxy)pyridin-2-yl)oxy)pyrazolo[1,5-a]pyridine-2-carboxamide] |
| 7.3 nM | CC1(NC(=O)c2nn3ccc(Oc4ncc(F)cc4OCC(F)(F)F)cc3c2Cl)CCS(=O)(=O)CC1 [Example 34, 3-Chloro-5-((5-fluoro-3-(2,2,2-trifluoroethoxy)pyridin-2-yl)oxy)-N-(4-methyl-1,1-dioxidotetrahydro-2H-thiopyran-4-yl)pyrazolo[1,5-a]pyridine-2-carboxamide] |
| 2.5 nM | CC1(NC(=O)c2cc3cc(Oc4ncc(Cl)cc4OCC(F)(F)F)ccn3n2)CS(=O)(=O)C1 [Example 15, 5-((5-Chloro-3-(2,2,2-trifluoroethoxy)pyridin-2-yl)oxy)-N-(3-methyl-1,1-dioxidothietan-3-yl)pyrazolo[1,5-a]pyridine-2-carboxamide] |
| 72 nM | CC1(NC(=O)c2cc3cc(Oc4ncc(F)cc4OCC(F)(F)F)ccn3n2)CS(=O)(=O)C1 [Example 17, 5-((5-Fluoro-3-(2,2,2-trifluoroethoxy)pyridin-2-yl)oxy)-N-(3-methyl-1,1-dioxidothietan-3-yl)pyrazolo[1,5-a]pyridine-2-carboxamide] |
| 67 nM | CC1(NC(=O)c2nc3cc(Oc4ncc(Cl)cc4OCC(F)(F)F)ccn3n2)CS(=O)(=O)C1 [Example 66, 7-((5-Chloro-3-(2,2,2-trifluoroethoxy)pyridin-2-yl)oxy)-N-(3-methyl-1,1-dioxidothietan-3-yl)-[1,2,4]triazolo[1,5-a]pyridine-2-carboxamide] |
| 7.2 nM | Cc1c(C(=O)NC2(C)CCS(=O)(=O)CC2)nn2ccc(Oc3ncccc3OCC(F)(F)F)cc12 [Example 19, 3-Methyl-N-(4-methyl-1,1-dioxidotetrahydro-2H-thiopyran-4-yl)-5-((3-(2,2,2-trifluoroethoxy)pyridin-2-yl)oxy)pyrazolo[1,5-a]pyridine-2-carboxamide] |
| 160 nM | O=C(NC1(CC(F)(F)F)CCS(=O)(=O)CC1)c1nc2cc(Oc3ncc(Cl)cc3OCC(F)(F)F)ccn2n1 [Example 65, 7-((5-Chloro-3-(2,2,2-trifluoroethoxy)pyridin-2-yl)oxy)-N-(1,1-dioxido-4-(2,2,2-trifluoroethyl)tetrahydro-2H-thiopyran-4-yl)-[1,2,4]triazolo[1,5-a]pyridine-2-carboxamide] |
| 18 nM | CC1(NC(=O)c2nn3ccc(Oc4nccnc4OCC(F)(F)F)cc3c2Cl)CCS(=O)(=O)CC1 [Example 35, 3-Chloro-N-(4-methyl-1,1-dioxidotetrahydro-2H-thiopyran-4-yl)-5-((3-(2,2,2-trifluoroethoxy)pyrazin-2-yl)oxy)pyrazolo[1,5-a]pyridine-2-carboxamide] |
